Experimental data reported in US6656906B1, “Hybrid polypeptides with enhanced pharmacokinetic properties” (Trimeris, Inc., priority 1998, dated 2003).

Key:
[1] = Acute toxicity, IV through jugular cannula; assay type: in vivo; settings: 167 mg/kg (highest dose tested), 0.3 ml over 2-3 min
[2] = Single-dose administration to rodents (CSI, SC, IV), plasma pharmacokinetics; assay type: in vivo, Sprague-Dawley albino rats; settings: for bioavailability / AUC(0-t) / AUC(0-inf) / Cmax / half-life / Tmax: rat, in vivo; for bioavailability: read-out: FR (%) relative bioavailability; for half-life: read-out: t1/2, terminal (converted)
Procedure: T1249 was administered to Sprague-Dawley albino rats in a single dose administered by continuous subcutaneous infusion (SCI), subcutaneous (SC) injection or intravenous (IV) injection. Each treatment group consisted of nine rats per sex per group. […] One group received 50 mM carbonate-bicarbonate, pH 8.5, administered as a control. The peptides were given for 12 hours via a polyvinyl chloride/polyethylene catheter surgically implanted subcutaneously in the nape of the neck. […] The actual milligram amount of T1249 was calculated using the peptide content that was determined for the batch administrated.
Endpoints for analysis included cageside observations (twice daily for mortality and moribundity), clinical observations, clinical laboratory parameters, body weight and necropsy. Blood samples were obtained by a sparse sampling technique over a 12 hour time period from three rats per sex per group at each of the following times: 0.5, 1, 2, 4, 6, 8, […], and 12 hours after dose administration. Sample analysis was performed using a PcAb ECLIA assay (Blackburn, G. et al., 1991, Clin. Chem. 37:1534-1539; Deaver, D., 1995, Nature 377:758).

[3] = Plasma and lymphatic pharmacokinetic analysis after IV bolus; assay type: in vivo, rats; settings: for clearance / AUC(0-inf) / Cmax / AUC(0-t) / half-life: rat, in vivo; for AUC(0-t): read-out: AUC(0-6h); for half-life: iv, IV bolus, read-out: t½, elimination (converted)
Procedure: For plasma and lymphatic pharmacokinetic analysis of T1249 in rats, T1249 was prepared as a sterile solution in bicarbonate buffer and administered as a single dose, bolus intravenous injection into the lateral tail vain at a dose of […]. Blood was collected from the animal from an in-dwelling jugular catheter. Samples were collected immediately after dosing and at 5, 15, and 30 minutes, and 1, 2, 4, and 6 hours after drug administration. For the analysis of lymphatic fluids, samples were taken immediately before dosing and every 20 minutes for the first six hours after dosing. Lymphatic fluid was collected from a catheter placed directly into the thoracic lymphatic duct as previously described (Kirkpatrick and Silver, 1970, The Journal of Surgical Research 10:147-158).

[4] = Penetration into cerebrospinal fluid; assay type: in vivo, rats; settings: all measurable time points, single dose; below limit of detection
[5] = Single-dose administration to primates (SC, IM, IV), plasma pharmacokinetics; assay type: in vivo, cynomolgus monkeys; settings: for bioavailability / half-life / AUC(0-inf) / Cmax / Tmax / AUC(0-t): in vivo; for bioavailability: read-out: FR (%) bioavailability relative to intravenous administration; for half-life: read-out: t½,terminal (converted); for AUC(0-t): read-out: AUC(0-24)
Procedure: A washout period of at least three days separated each dosing day. […] The actual milligram amount of test article was calculated using the peptide content that was determined for the batch administered.
Endpoints for analysis included cageside observations, physical examinations and body weight. For the IV phase of the study, blood samples were collected into heparinized tubes at the following time points: immediately after dosing, 0.25, 0.5, 1.5, 3, 6, 12, and 24 hours after dosing. For the IM and SC phases of the study blood samples were collected in heparinized tubes from each animal at the following time points: 0.5, 1, 2, 3, 6, 12, and 24 hours after dosing. Plasma samples were prepared within one hour of collection and flash frozen in liquid nitrogen. Samples analysis was performed using a PcAb ECLIA assay (Blackburn, G. et al., 1991, Clin. Chem. 37:1534-1539; Deaver, D., 1995, Nature 377:758).

[6] = cynomolgus monkey, IM (0.8 mg/kg)
[7] = cynomolgus monkey, IV (0.8 mg/kg)
[8] = cynomolgus monkey, SC (0.4 mg/kg)
[9] = cynomolgus monkey, SC (0.8 mg/kg)
[10] = cynomolgus monkey, SC (1.6 mg/kg)

Structure (SMILES): CC[C@H](C)[C@H](NC(=O)[C@H](CCC(N)=O)NC(=O)[C@H](C)NC(=O)[C@H](CCC(N)=O)NC(=O)[C@H](CCC(=O)O)NC(=O)[C@H](CC(C)C)NC(=O)[C@H](CC(C)C)NC(=O)[C@H](C)NC(=O)[C@@H](NC(=O)[C@@H](NC(=O)[C@H](CCCCN)NC(=O)[C@H](CCC(N)=O)NC(=O)[C@H](CCC(=O)O)NC(=O)[C@H](Cc1c[nH]c2ccccc12)NC(=O)[C@H](CCC(=O)O)NC(=O)[C@H](CCC(N)=O)NC(=O)[C@H](Cc1c[nH]c2ccccc12)NC(C)=O)[C@@H](C)CC)[C@@H](C)O)C(=O)N[C@@H](CCC(N)=O)C(=O)N[C@@H](CCC(N)=O)C(=O)N[C@@H](CCC(=O)O)C(=O)N[C@@H](CCCCN)C(=O)N[C@@H](CC(N)=O)C(=O)N[C@@H](CCC(=O)O)C(=O)N[C@@H](Cc1ccc(O)cc1)C(=O)N[C@@H](CCC(=O)O)C(=O)N[C@@H](CC(C)C)C(=O)N[C@@H](CCC(N)=O)C(=O)N[C@@H](CCCCN)C(=O)N[C@@H](CC(C)C)C(=O)N[C@@H](CC(=O)O)C(=O)N[C@@H](CCCCN)C(=O)N[C@@H](Cc1c[nH]c2ccccc12)C(=O)N[C@@H](C)C(=O)N[C@@H](CO)C(=O)N[C@@H](CC(C)C)C(=O)N[C@@H](Cc1c[nH]c2ccccc12)C(=O)N[C@@H](CCC(=O)O)C(=O)N[C@@H](Cc1c[nH]c2ccccc12)C(=O)N[C@@H](Cc1ccccc1)C(N)=O [T1249]
- acute toxicity (death within 24 hours) [1]: not acutely toxic
- time to steady-state plasma peptide concentrations ([2]; CSI): approximately four hours
- dose proportionality of Cpss and AUC ([2]; CSI, 0.5 to 6.5 mg/kg): linear pharmacokinetics
- dose dependence of exposure ([2]; SC injection): not dose-dependent
- changes in body weight, physical observations, hematology and clinical chemistry parameters or macroscopic pathology ([2]; all dose groups): no changes
- dose dependence of pharmacokinetics ([2]; bolus IV injection): linear dose-dependent pharmacokinetics
- bioavailability ([2]; SC 1.2 mg/kg relative to IV 1.5 mg/kg): 73%
- bioavailability ([2]; SC 15 mg/kg relative to IV 5 mg/kg): 30%
- AUC(0-t) ([2]; CSI, 0.5 mg/kg): 7990 ng·h/mL
- AUC(0-t) ([2]; CSI, 2.0 mg/kg): 25900 ng·h/mL
- AUC(0-t) ([2]; CSI, 6.5 mg/kg): 120000 ng·h/mL
- AUC(0-inf) ([2]; IV 1.5 mg/kg): 47100 ng·h/mL
- AUC(0-t) ([2]; IV 1.5 mg/kg): 45600 ng·h/mL
- Cmax ([2]; IV 1.5 mg/kg): 15700 ng/mL
- half-life ([2]; IV 1.5 mg/kg): 2.46 h
- AUC(0-inf) ([2]; IV 5.0 mg/kg): 120000 ng·h/mL
- AUC(0-t) ([2]; IV 5.0 mg/kg): 118000 ng·h/mL
- Cmax ([2]; IV 5.0 mg/kg): 46300 ng/mL
- half-life ([2]; IV 5.0 mg/kg): 1.86 h
- AUC(0-inf) ([2]; SC 1.2 mg/kg): 27600 ng·h/mL
- AUC(0-t) ([2]; SC 1.2 mg/kg): 27000 ng·h/mL
- Cmax ([2]; SC 1.2 mg/kg): 6370 ng/mL
- Tmax ([2]; SC 1.2 mg/kg): 1.09 h
- half-life ([2]; SC 1.2 mg/kg): 2.02 h
- AUC(0-inf) ([2]; SC 15 mg/kg): 110000 ng·h/mL
- AUC(0-t) ([2]; SC 15 mg/kg): 107000 ng·h/mL
- Cmax ([2]; SC 15 mg/kg): 21500 ng/mL
- Tmax ([2]; SC 15 mg/kg): 1.88 h
- half-life ([2]; SC 15 mg/kg): 2 h
- time to equilibration of lymphatic system with the plasma reservoir ([3]; after IV administration): within approximately one hour
- clearance ([3]; Lymph): 0.192 mL/min
- AUC(0-inf) ([3]; Lymph, averages exclude Rat #1): 449000 ng·h/mL
- Cmax ([3]; Lymph, averages exclude Rat #1): 155000 ng/mL
- AUC(0-t) ([3]; Lymph, averages exclude Rat #1): 411000 ng·h/mL
- AUC(0-inf) ([3]; Lymph, averages include Rat #1): 390000 ng·h/mL
- Cmax ([3]; Lymph, averages include Rat #1): 133000 ng/mL
- AUC(0-t) ([3]; Lymph, averages include Rat #1): 348000 ng·h/mL
- AUC(0-inf) ([3]; Plasma): 598000 ng·h/mL
- Cmax ([3]; Plasma): 291000 ng/mL
- clearance ([3]; Plasma): 0.13 mL/min
- AUC(0-t) ([3]; Plasma): 506000 ng·h/mL
- half-life ([3]; Lymph): 1.3 ± 0.27 h
- half-life ([3]; Plasma): 2.6 ± 0.41 h
- concentration in cerebrospinal fluid (CSF) [4]: < 2.0 ng T1249/ml CSF
- t½,terminal ([5]; IM (0.8 mg/kg)): 5.57 h
- t½,terminal ([5]; IV (0.8 mg/kg), 0.8 mg/kg): 5.35 h
- t½,terminal ([5]; SC (0.8 mg/kg), 0.8 mg/kg): 4.83 h
- linearity of pharmacokinetics ([5]; SC administration, 0.4-1.6 mg/kg): linear pharmacokinetics
- level at 24 h ([5]; both sexes, cynomolgus monkey, plasma, 24 hours after SC and IV administration, read-out: quantifiable plasma levels at 24 hours): > 500 ng/mL
- bioavailability ([5]; cynomolgus monkey, 0.8 mg/kg, IM (0.8 mg/kg)): ~64%
- bioavailability ([5]; cynomolgus monkey, 0.8 mg/kg, SC (0.8 mg/kg)): ~92%
- half-life ([5]; cynomolgus monkey, im, 0.8 mg/kg, IM (0.8 mg/kg)): 5.6 h
- half-life ([5]; cynomolgus monkey, iv, 0.8 mg/kg, IV (0.8 mg/kg)): 5.4 h
- half-life ([5]; cynomolgus monkey, sc, 0.4 mg/kg, SC (0.4 mg/kg)): 6.23 h
- half-life ([5]; cynomolgus monkey, sc, 0.8 mg/kg, SC (0.8 mg/kg)): 4.8 h
- half-life ([5]; cynomolgus monkey, sc, 1.6 mg/kg, SC (1.6 mg/kg)): 5.55 h
- AUC(0-inf) [5, 6]: 59500 ng·h/mL
- Cmax [5, 6]: 6370 ng/mL
- Tmax [5, 6]: 2.32 h
- AUC(0-t) [5, 6]: 56400 ng·h/mL
- AUC(0-inf) [5, 7]: 92500 ng·h/mL
- Cmax [5, 7]: 26700 ng/mL
- AUC(0-t) [5, 7]: 87400 ng·h/mL
- AUC(0-inf) [5, 8]: 40900 ng·h/mL
- Cmax [5, 8]: 3170 ng/mL
- Tmax [5, 8]: 3.97 h
- AUC(0-t) [5, 8]: 37500 ng·h/mL
- AUC(0-inf) [5, 9]: 85300 ng·h/mL
- Cmax [5, 9]: 6850 ng/mL
- Tmax [5, 9]: 4.58 h
- AUC(0-t) [5, 9]: 8120 ng·h/mL
- AUC(0-inf) [5, 10]: 181000 ng·h/mL
- Cmax [5, 10]: 13300 ng/mL
- Tmax [5, 10]: 4.72 h
- AUC(0-t) [5, 10]: 168000 ng·h/mL
- cytotoxicity in vitro (Molt 4, CEM cells): No overt evidence of T1249 cytotoxicity
